Read-outs that look alike come from different tables or passages of the source.

This experiment deals with cytokine production in whole blood. Put plainly: In vitro LPS/R848-induced cytokine production assay in whole blood. The format is cell-based, human. The following applies: read-out: TNF-α production IC50. The procedure:
Compounds of the present invention were also studied in in vitro LPS/R848/CpG-induced cytokine production assays. Exemplary protocols follow.
Whole Blood (LPS): 13 mL of whole blood solution was prepared by combining whole blood in no serum medium with a ratio of 1:1. Cells were seeded in a 96-well plate with 130 ul/well of the cell suspension according to the plate map. 9 ul of 30 mM compound solution was added into the wells in the assigned rows, then serial solutions with 4× dilutions were made. That is, add 9 uL of 100% DMSO into each of the rest wells and take 3 uL of compound solution from the one-step higher concentration solution and mix well with the DMSO. For the second compound master plate, 196 uL of the growth medium (no serum media) were added into each of the wells and 4 uL of the compound solution from the first compound master plate was added and mixed with the media. Cells were treated for 0.5 h by adding 20 uL of the compound and the control solutions prepared in the second master plate to each well according to the plate map. Cells were stimulated with a) 0.1 ug/mL of LPS overnight for whole blood assay; b) 0.01 ug/mL of LPS overnight for hWBC assay. Plates were sealed with sealing films and the plates were centrifuged at 3000 rpm at 4 degrees C. for 5 min. The supernatants were transferred, and 100 ul of working Capture antibody solution was added to each well. The plates were sealed and incubated overnight at RT. IL-6, IFN-α or TNF-α detection antibody labeled with biotin: Added 100 uL of the Detection Antibody solution to each well. Covered the plate and incubated for 2 h at RT. Added 100 uL of Streptavidin-HRP solution to each well. Covered the plate and incubate for 20 min at RT in dark. Added 100 uL of Substrate Solution to each well. Incubated for 20 min at RT in dark. Added 50 uL of Stop Solution to each well. Gently tapped the plate to ensure thorough mixing. Determined the optical density of each well immediately, using a microplate reader set to 450 nm and also read at 540 nm or 570 nm for correction if wavelength correction is not available.

[1] abbreviates: Homo sapiens, LPS 0.1 uM, overnight.

Regarding `CCc1nc2c(N[C@H]3CC[C@H](N4CCOCC4)CC3)nc(Nc3cnn(C)c3)nc2s1` [Compound I-7, 2-ethyl-N5-(1-methyl-1H-pyrazol-4-yl)-N7-((1r,4r)-4-morpholinocyclohexyl)-thiazolo[5,4-d]pyrimidine-5,7-diamine], the IC50 is no less than 5000 nM under setting [1] and 1000 to 5000 nM (Homo sapiens, R848 1 uM, 20 h).

With “2-methyl-N5-(1-methyl-1H-pyrazol-4-yl)-N7-((1r,4r)-4-morpholinocyclohexyl)thiazolo[5,4-d]pyrimidine-5,7-diamine [Compound I-24]”, the IC50 (LPS 0.1 uM, overnight) was no less than 5000 nM and the IC50 (R848 1 uM, 20 h) lay within 1000 to 5000 nM.

Regarding `CCc1nc2c(N[C@H]3CC[C@H](N4CCOCC4)CC3)nc(Nc3cnn(C4CCOCC4)c3)nc2s1` [Compound I-9, 2-ethyl-5-N-[1-(oxan-4-yl)-1H-pyrazol-4-yl]-7-N—[trans-4-(morpholin-4-yl)cyclohexyl]-[1,3]thiazolo[5,4-d]pyrimidine-5,7-diamine], the IC50 reads like this: under setting [1], 1000 to 5000 nM; (Homo sapiens, R848 1 uM, 20 h) 250 to 1000 nM.

What is called IC50 is the concentration that gives 50% inhibition.

(Values after patent US9518065B2, “IRAK inhibitors and uses thereof” (NIMBUS IRIS, INC., priority 2013, dated 2016).)
